According to the NIST ThermoML archive (doi:10.1016/j.jct.2016.09.005):

Conditions: Liquid, Brillouin Light Scattering

CC(C)OC(C)C [diisopropyl ether]
Conditions | speed of sound [m/s]
367.78 K, 4000 kPa | 751.56
367.82 K, 8500 kPa | 809.14
367.96 K, 10000 kPa | 835.29
368.03 K, 1000 kPa | 715.17
368.26 K, 2500 kPa | 726.3
372.68 K, 10000 kPa | 816.27
372.8 K, 7000 kPa | 771.64
373.15 K, 5500 kPa | 753.88
373.21 K, 8500 kPa | 788.43
373.29 K, 2500 kPa | 712.12
373.37 K, 4000 kPa | 726.56
373.57 K, 1000 kPa | 697.04
377.41 K, 1000 kPa | 679.66
377.54 K, 7000 kPa | 749.64
377.85 K, 4000 kPa | 712.4
377.85 K, 5500 kPa | 728.98
377.97 K, 8500 kPa | 770.84
378.05 K, 2500 kPa | 690.57
378.3 K, 10000 kPa | 803.55
382.72 K, 1000 kPa | 654.9
382.77 K, 7000 kPa | 734.01
382.78 K, 10000 kPa | 787
382.83 K, 5500 kPa | 710.48
382.88 K, 8500 kPa | 754.35
383.06 K, 2500 kPa | 665.89
383.26 K, 4000 kPa | 691.26
387.78 K, 4000 kPa | 674.22
388 K, 7000 kPa | 713.08
388.09 K, 5500 kPa | 694.59
388.3 K, 8500 kPa | 735.65
388.31 K, 2500 kPa | 653.57
388.68 K, 1000 kPa | 634.3
388.86 K, 10000 kPa | 760.66
392.26 K, 2500 kPa | 635.1
392.28 K, 5500 kPa | 675.48
392.33 K, 7000 kPa | 701.13
392.5 K, 4000 kPa | 658.79
392.65 K, 10000 kPa | 747.04
392.79 K, 8500 kPa | 722.68
393.19 K, 1000 kPa | 615.78
397.81 K, 4000 kPa | 632.66
397.95 K, 2500 kPa | 613.31
398.22 K, 5500 kPa | 653.67
398.25 K, 1000 kPa | 589.15
398.32 K, 8500 kPa | 702.44
398.37 K, 7000 kPa | 674.76
398.9 K, 10000 kPa | 728.83
402.67 K, 7000 kPa | 662.53
402.77 K, 5500 kPa | 638.47
402.88 K, 2500 kPa | 590.27
403.23 K, 8500 kPa | 683.98
403.4 K, 4000 kPa | 612.03
403.45 K, 1000 kPa | 570.56
403.45 K, 10000 kPa | 709.11
407.64 K, 5500 kPa | 623.08
407.75 K, 10000 kPa | 693.65
408.1 K, 7000 kPa | 642.44
408.23 K, 8500 kPa | 667.12
408.31 K, 4000 kPa | 592.12
408.37 K, 2500 kPa | 571.15
408.65 K, 1000 kPa | 544.68
412.43 K, 2500 kPa | 550.12
412.43 K, 5500 kPa | 606.9
412.66 K, 1000 kPa | 530.21
412.7 K, 4000 kPa | 576.58
412.83 K, 10000 kPa | 681.56
412.95 K, 8500 kPa | 646.94
413.28 K, 7000 kPa | 622.07
418.22 K, 2500 kPa | 532.67
418.42 K, 8500 kPa | 627.35
418.54 K, 5500 kPa | 583.39
418.59 K, 10000 kPa | 659.95
418.87 K, 7000 kPa | 603.43
418.91 K, 4000 kPa | 554.62
419.01 K, 1000 kPa | 502.48
423.21 K, 1000 kPa | 482.17
423.5 K, 4000 kPa | 536.96
423.62 K, 8500 kPa | 613.79
423.75 K, 7000 kPa | 590.42
423.79 K, 5500 kPa | 567.31
423.9 K, 10000 kPa | 640.34
424.09 K, 2500 kPa | 502.49
427.41 K, 7000 kPa | 578.56
427.66 K, 1000 kPa | 460.04
427.92 K, 8500 kPa | 597.25
428.03 K, 4000 kPa | 520.63
428.26 K, 2500 kPa | 490.5
428.45 K, 5500 kPa | 546.98
428.53 K, 10000 kPa | 625.16
432.35 K, 10000 kPa | 618.58
432.63 K, 5500 kPa | 529.89
432.77 K, 8500 kPa | 581.79
432.83 K, 7000 kPa | 558.11

Conditions | speed of sound [m/s]
378.14 K | 662.26
393.15 K | 593.47
402.97 K | 552.35
412.75 K | 514.15
422.75 K | 469.11
432.74 K | 426.77
